The values below come from article PMC10607876, “Phenylacetyl-/Trolox- Amides: Synthesis, Sigma-1, HDAC-6, and Antioxidant Activities” (International Journal of Molecular Sciences, 2023).

For assay [1], the target named is T1, σ-2 (Rattus norvegicus, UniProt Q5U3Y7).
T1 sequence (Q5U3Y7 1-176): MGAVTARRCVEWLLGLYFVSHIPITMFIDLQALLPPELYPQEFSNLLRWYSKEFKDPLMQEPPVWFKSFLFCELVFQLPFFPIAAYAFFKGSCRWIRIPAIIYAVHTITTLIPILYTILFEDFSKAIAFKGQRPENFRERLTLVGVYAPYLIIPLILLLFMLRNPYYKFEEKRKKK
As to the kind of experiment: Sigma-2 competitive radioligand displacement binding (NIMH PDSP). As to the method: Sigma-1 and 2 affinity experiments (Ki values) were carried out at the National Institute of Mental Health’s Psychoactive Drug Screening Program (NIMH PDSP, UNC Chapel Hill, NC). Assay details (i.e., competitive radioligand displacement conditions, etc.) are available at https://pdsp.unc.edu/pdspweb/content/PDSP%20Protocols%20II%202013-03-28.pdf (accessed on 23 August 2023). Table 2 below indicates the Ki values determined for all compounds.
A general note: In a radioligand displacement assay an active substance lowers the binding of a labelled ligand.

Assay [2] can be described thus: Oxygen Radical Activity Capacity (ORAC) assay. The note with it: for antioxidant activities (in words): ORAC; for Slopes: slope of net AUC vs concentration (2.5-50 µM), averaged, n = 3 runs, 60 min; for TEs (Trolox equivalents): slope of sample divided by slope of Trolox, ORAC after 60 min, mean ± SD, n = 3. As to the method: Compound antioxidant capacities were determined using the Oxygen Radical Activity Capacity (ORAC) Assay Kit (catalog #ab233473, Abcam, Cambridge, MA, USA) according to the manufacturer’s protocol. Briefly, the Trolox standard (0.2 mM, 50:50 v/v, water: acetone) and each test compound (0.2 mM, 50:50 v/v, water: acetone) were tested at final concentrations ranging from 2.5 µM to 50 µM in the assay. Fluorescein (150 μL) probe solution and 25 μL of Trolox or each test compound were mixed in each well of a black 96-well microplate and incubated at 37 °C for 30 min. […] Trolox equivalents (TE) for the test compounds were obtained by directly dividing the slopes of each sample by the slope of the Trolox from its standard curve (Table 4). […] Curiously, unlike the phenolic Trolox derivatives (i.e., 3, 4, 8, 12, and 20), compound 18′s antioxidant activity can be attributed to the -NH-OH moiety.

The target of assay [3] is T2, HDAC-6 (Homo sapiens, UniProt Q9UBN7).
T2 sequence (Q9UBN7 1-1215): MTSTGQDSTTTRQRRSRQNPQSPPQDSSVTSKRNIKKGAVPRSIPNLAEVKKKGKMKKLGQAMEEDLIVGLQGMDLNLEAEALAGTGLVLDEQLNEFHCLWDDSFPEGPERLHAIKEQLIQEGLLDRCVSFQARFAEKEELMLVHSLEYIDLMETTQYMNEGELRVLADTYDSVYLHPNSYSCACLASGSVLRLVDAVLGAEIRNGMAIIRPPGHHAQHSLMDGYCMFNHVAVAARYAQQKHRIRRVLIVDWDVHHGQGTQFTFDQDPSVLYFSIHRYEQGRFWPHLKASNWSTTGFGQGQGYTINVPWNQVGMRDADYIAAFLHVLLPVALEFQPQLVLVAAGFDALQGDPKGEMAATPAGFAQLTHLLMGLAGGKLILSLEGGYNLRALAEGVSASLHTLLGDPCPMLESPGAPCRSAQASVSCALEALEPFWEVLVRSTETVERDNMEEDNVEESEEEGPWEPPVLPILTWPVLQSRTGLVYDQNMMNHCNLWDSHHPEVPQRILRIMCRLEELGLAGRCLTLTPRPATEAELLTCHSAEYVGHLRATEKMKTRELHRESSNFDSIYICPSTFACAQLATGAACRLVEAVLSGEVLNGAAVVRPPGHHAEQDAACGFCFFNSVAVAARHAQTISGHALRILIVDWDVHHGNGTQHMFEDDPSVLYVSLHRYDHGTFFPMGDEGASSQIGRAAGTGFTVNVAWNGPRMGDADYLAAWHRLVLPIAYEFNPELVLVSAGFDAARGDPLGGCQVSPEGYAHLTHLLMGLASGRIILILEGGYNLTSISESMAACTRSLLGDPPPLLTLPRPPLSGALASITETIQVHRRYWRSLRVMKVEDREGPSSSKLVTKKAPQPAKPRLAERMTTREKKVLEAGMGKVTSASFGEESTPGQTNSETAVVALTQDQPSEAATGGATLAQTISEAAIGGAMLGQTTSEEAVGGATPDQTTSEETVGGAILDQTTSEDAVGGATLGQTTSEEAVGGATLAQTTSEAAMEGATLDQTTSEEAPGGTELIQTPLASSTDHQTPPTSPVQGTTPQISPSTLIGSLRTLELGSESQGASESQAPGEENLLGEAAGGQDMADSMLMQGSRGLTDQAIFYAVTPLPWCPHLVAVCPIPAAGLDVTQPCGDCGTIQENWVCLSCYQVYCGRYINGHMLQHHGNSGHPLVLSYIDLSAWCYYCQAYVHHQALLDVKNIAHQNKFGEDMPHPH
Description: HDAC fluorescence activity assay (Reaction Biology, Howitz conditions). The note with it: HDAC-6 IC50, fluorogenic acetylated lysine substrate, 10-dose IC50 mode, threefold serial dilutions.

Where “and” joins values, the source holds several entries; their conditions need not be identical. Equal values may be shown once.

`COC(=O)c1ccc(CNC(=O)Cc2ccccc2)cc1` [Compound 1, Methyl 4-((2-phenylacetamido)methyl) benzoate]: the Ki in assay [1] was above 10 µM. In assay [1], `COC(=O)c1ccc(CNC(=O)C2(C)CCc3c(C)c(O)c(C)c(C)c3O2)cc1` (stereo not shown) [Compound 2, Methyl 4-((6-hydroxy-2,5,7,8-tetramethylchromane-2-carboxamido)methyl)benzoate] yielded an inhibition constant (Ki) of 7.47 µM. Take `Cc1c(C)c2c(c(C)c1O)CCC(C)(C(=O)Nc1nc3ccccc3o1)O2` (stereo not shown) [Compound 3, N-(Benzo[d]oxazol-2-yl)-6-hydroxy-2,5,7,8-tetramethylchromane-2-carboxamide]: in assay [2], the “antioxidant activities (in words)” value was “potent”, the Slopes worked out at 205.61 ± 4.38 and the “TEs (Trolox equivalents)” value is 1.70 ± 0.04 TE. The Ki in assay [1] was above 10 µM. Take `Cc1c(C)c2c(c(C)c1O)CCC(C)(C(=O)NCc1ccc(S(N)(=O)=O)cc1)O2` (stereo not shown) [Compound 4, 6-Hydroxy-2,5,7,8-tetramethyl-N-(4-sulfamoylbenzyl) chromane-2-carboxamide]: in assay [2], the “antioxidant activities (in words)” value is “potent”, the Slopes amounted to 155.07 ± 2.39 and the “TEs (Trolox equivalents)” value is reported as 1.28 ± 0.02 TE. Moreover, in assay [1], the inhibition constant Ki is above 10 µM.

For the molecule `NNC(=O)c1ccc(CNC(=O)Cc2ccccc2)cc1` [Compound 5, N-(4-(Hydrazinecarbonyl)benzyl)-2-phenylacetamide], the Ki in assay [1] is above 10 µM. In assay [1], `Cc1c(C)c2c(c(C)c1O)CCC(C)(C(=O)Nc1nc3ccccc3[nH]1)O2` (stereo not shown) [Compound 6, N-(1H-benzo[d]imidazol-2-yl)-6-hydroxy-2,5,7,8-tetramethylchromane-2-carboxamide] registered a Ki of 7.49 µM.

As for `Cc1c(C)c2c(c(C)c1O)CCC(C)(C(=O)Nc1cc3ccccc3cn1)O2` (stereo not shown) [Compound 7, 6-Hydroxy-N-(isoquinolin-3-yl)-2,5,7,8-tetramethylchromane-2-carboxamide], in assay [1], the inhibition constant (Ki) is 1.5 µM. Compared with the last molecule, the Ki is about 5-fold lower.

In the case of `Cc1c(C)c2c(c(C)c1O)CCC(C)(C(=O)NCc1ccc(C(=O)NO)cc1)O2` (stereo not shown) [Compound 8, 6-Hydroxy-N-(4-(hydroxycarbamoyl)benzyl)-2,5,7,8-tetramethylchromane-2-carboxamide], in assay [2], the “antioxidant activities (in words)” value is “potent”; the Slopes was found to be 232.42 ± 8.98; the “TEs (Trolox equivalents)” value was 1.92 TE and 1.92 ± 0.07 TE. Besides, the concentration for half-maximal inhibition (IC50) in assay [3] was 0.017 µM and 0.0173 µM. The inhibition constant (Ki) in assay [1] is above 10 µM.

The molecule `Cc1c(C)c2c(c(C)c1O)CCC(C)(C(=O)NCc1ccc(C(=O)NN)cc1)O2` (stereo not shown) [Compound 9, N-(4-(Hydrazinecarbonyl)benzyl)-6-hydroxy-2,5,7,8-tetramethylchromane-2-carboxamide] showed an inhibition constant Ki in assay [1] above 10 µM. In assay [1], `Cc1c(C)c2c(c(C)c1O)CCC(C)(C(=O)Nc1cnccn1)O2` (stereo not shown) [Compound 10, 6-Hydroxy-2,5,7,8-tetramethyl-N-(pyrazin-2-yl) chromane-2-carboxamide] showed a Ki of 5.59 µM.

For `Cc1nc(NC(=O)C2(C)CCc3c(C)c(O)c(C)c(C)c3O2)sc1C` (stereo not shown) [Compound 11, N-(4,5-Dimethylthiazol-2-yl)-6-hydroxy-2,5,7,8-tetramethylchromane-2-carboxamide], the inhibition constant Ki in assay [1] was above 10 µM. Consider `Cc1c(C)c2c(c(C)c1O)CCC(C)(C(=O)Nc1ncc[nH]1)O2` (stereo not shown) [Compound 12, 6-Hydroxy-N-(1H-imidazol-2-yl)-2,5,7,8-tetramethylchromane-2-carboxamide], for which, in assay [2], the “antioxidant activities (in words)” value is “potent”, the Slopes is given as 151.24 ± 0.30 and the “TEs (Trolox equivalents)” value stood at 1.25 ± 0.002 TE. For the same molecule, the Ki in assay [1] was above 10 µM.

`Cc1cc(NC(=O)C2(C)CCc3c(C)c(O)c(C)c(C)c3O2)no1` (stereo not shown) [Compound 13, 6-Hydroxy-2,5,7,8-tetramethyl-N-(5-methylisoxazol-3-yl)chromane-2-carboxamide] gave an inhibitory constant (Ki) in assay [1] of 6.86 µM. `Cc1c(C)c2c(c(C)c1O)CCC(C)(C(=O)N1CCN(c3ncccn3)CC1)O2` (stereo not shown) [Compound 14, (6-Hydroxy-2,5,7,8-tetramethylchroman-2-yl)(4-(pyrimidin-2-yl)piperazin-1-yl)methanone] returned an inhibition constant (Ki) in assay [1] of 2.49 µM. For the molecule `Cc1c(C)c2c(c(C)c1O)CCC(C)(C(=O)NCc1ccc3c(c1)OCO3)O2` (stereo not shown) [Compound 15, N-(Benzo[d][1,3]dioxol-5-ylmethyl)-6-hydroxy-2,5,7,8-tetramethylchromane-2-carboxamide], the Ki in assay [1] was found to be 6.98 µM.

Molecule `NS(=O)(=O)c1ccc(CNC(=O)Cc2ccccc2)cc1` [Compound 16, 2-Phenyl-N-(4-sulfamoylbenzyl) acetamide] had a Ki in assay [1] above 10 µM. As for `O=C(Cc1ccccc1)NCc1ccc(C(=O)NO)cc1` [Compound 18, N-Hydroxy-4-((2-phenylacetamido)methyl)benzamide], in assay [2], the “antioxidant activities (in words)” value is “potent”, the Slopes was 137.45 ± 1.88 and the “TEs (Trolox equivalents)” value is given as 1.13 ± 0.02 TE. In addition, the IC50 in assay [3] was 0.077 µM and 0.0779 µM. In the case of `Cc1c(C)c2c(c(C)c1O)CCC(C)(C(=O)NNC(=O)c1ccc(Cl)cc1)O2` (stereo not shown) [Compound 20, N′-(4-Chlorobenzoyl)-6-hydroxy-2,5,7,8-tetramethylchromane-2-carbohydrazide], in assay [2], the “antioxidant activities (in words)” value was “potent”, the Slopes is listed as 177.86 ± 3.38 and the “TEs (Trolox equivalents)” value was 1.47 ± 0.03 TE. Turning to `Cc1c(C)c2c(c(C)c1O)CCC(C)(C(=O)O)O2` (stereo not shown) [Trolox, 6-hydroxy-2,5,7,8-tetramethylchroman-2-carboxylic acid], the “TEs (Trolox equivalents)” value in assay [2] is on record as 1.0 TE.

For orientation: Ki means the equilibrium dissociation constant of an inhibitor or competing ligand from its target. High values mean a looser hold on the target, low ones a stronger hold on the target. Usually IC50 stands for the concentration that inhibits the measured activity by half.
